19 compounds from patent US10336762B2 (priority 2017, dated 2019) can be followed below.

Broadly, the EC50 is the concentration at which the effect is half-maximal. For orientation: IC50 means the concentration that inhibits the measured activity by half. Read a low IC50 as greater potency.

Assay [1] has as its system TNFα. As to the kind of experiment: cells. The class given is cell-based, human. The note with it: Homo sapiens, Monocyte, LPS-stimulated human monocytes, TNFα content; read-out: EC50 TNF.
Assay [2] addresses IRAK4 enzyme (Homo sapiens (Human), UniProt Q9NWZ3). The assay is described as follows: biochemical. The class given is biochemical. The conditions noted are these: IRAK4 enzyme, TR-FRET, 500 μM ATP. (In general: In TR-FRET formats the signal depends on donor and acceptor labels being close together.)

IRAK4 enzyme, sequence (Q9NWZ3 whole entry): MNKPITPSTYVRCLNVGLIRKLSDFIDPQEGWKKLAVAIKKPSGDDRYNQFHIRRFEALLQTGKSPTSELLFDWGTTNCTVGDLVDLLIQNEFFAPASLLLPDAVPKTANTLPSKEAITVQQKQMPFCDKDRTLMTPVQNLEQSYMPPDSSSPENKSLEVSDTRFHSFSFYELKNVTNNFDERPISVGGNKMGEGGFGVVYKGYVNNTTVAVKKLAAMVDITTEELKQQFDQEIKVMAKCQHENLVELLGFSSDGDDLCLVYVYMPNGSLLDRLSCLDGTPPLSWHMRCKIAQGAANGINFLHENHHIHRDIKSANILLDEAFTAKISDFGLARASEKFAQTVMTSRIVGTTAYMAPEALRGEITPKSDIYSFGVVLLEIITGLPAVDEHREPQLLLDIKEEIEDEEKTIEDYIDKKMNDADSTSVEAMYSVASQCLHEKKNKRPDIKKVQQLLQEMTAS

Regarding `CNC(=O)O[C@H]1C[C@@H](Nc2cc(-c3ccc4cc(C#N)cnn34)ncc2C(=O)NC[C@@H](F)C(C)(C)O)C1` [Example 351, (1S,3S)-3-((2-(3-cyanopyrrolo[1,2-b]pyridazin-7-yl)-5-(((R)-2-fluoro-3-hydroxy-3-methylbutyl)carbamoyl)pyridin-4-yl)amino)cyclobutyl methylcarbamate], in assay [1], the EC50 was 120 nM. This compound registered an IC50 in assay [2] of 2 nM.
In the same order, the values of `N#CCCNC(=O)c1cnc(-c2ccc3cc(C#N)cnn23)cc1NC12CCC(O)(CC1)CC2` [Example 352, N-(2-cyanoethyl)-6-(3-cyanopyrrolo[1,2-b]pyridazin-7-yl)-4-((4-hydroxybicyclo[2.2.2]octan-1-yl)amino) nicotinamide] are 76 nM and 1 nM.
In the same order, the values of `CC(C)(F)[C@H](F)CNC(=O)c1cnc(-c2ccc3cc(C#N)cnn23)cc1NC12CCC(O)(CC1)CC2` [Example 353, (R)-6-(3-cyanopyrrolo[1,2-b]pyridazin-7-yl)-N-(2,3-difluoro-3-methylbutyl)-4-((4-hydroxybicyclo[2.2.2]octan-1-yl)amino) nicotinamide] are 16 nM and less than 1 nM.
In the same order, the values of `COC(C)(C)[C@H](F)CNC(=O)c1cnc(-c2ccc3cc(C#N)cnn23)cc1NC12CCC(O)(CC1)CC2` [Example 354, (R)-6-(3-cyanopyrrolo[1,2-b]pyridazin-7-yl)-N-(2-fluoro-3-methoxy-3-methylbutyl)-4-((4-hydroxybicyclo[2.2.2]octan-1-yl)amino) nicotinamide] are 19 nM and less than 1 nM.
On to `CC(C)(O)CCNC(=O)c1cnc(-c2ccc3cc(C#N)cnn23)cc1NC12CCC(O)(CC1)CC2` [Example 355, 6-(3-cyanopyrrolo[1,2-b]pyridazin-7-yl)-N-(3-hydroxy-3-methylbutyl)-4-((4-hydroxy-bicyclo[2.2.2]octan-1-yl)amino)nicotinamide], for which the EC50 in assay [1] is 23 nM. Also, the concentration for half-maximal inhibition (IC50) in assay [2] was less than 1 nM.
In the same order, the values of `CNC(=O)O[C@H]1C[C@@](C)(Nc2cc(-c3ccc4cc(C#N)cnn34)ncc2C(=O)NC[C@@H](F)C(C)(C)O)C1` [Example 356] are 800 nM and 6 nM.
For the compound `CC(C)(C)NC(=O)c1cnc(-c2ccc3cc(C#N)cnn23)cc1NC12CCC(O)(CC1)CC2` [Example 357, N-(tert-butyl)-6-(3-cyano-pyrrolo[1,2-b]pyridazin-7-yl)-4-((4-hydroxy-bicyclo[2.2.2]octan-1-yl)amino)nicotinamide], the concentration giving a half-maximal response (EC50) in assay [1] worked out at 413 nM. Further, the IC50 in assay [2] came out at 9 nM.
As to `[2H]C([2H])([2H])NC(=O)c1cnc(-c2ccc3cc(C#N)cnn23)cc1NC12CCC(O)(CC1)CC2` [Example 358, 6-(3-cyanopyrrolo[1,2-b]pyridazin-7-yl)-4-((4-hydroxybicyclo[2.2.2]octan-1-yl)amino)-N-(methyl-d3)nicotinamide], the concentration for a half-maximal effect (EC50) in assay [1] was found to be 122 nM. Moreover, in assay [2], inhibition was half-maximal at 3 nM (IC50).
With `CC(C)(O)[C@H](F)CNC(=O)c1cnc(-c2ccc3cc(C#N)cnn23)cc1Nc1nc(-c2ccc(Oc3ccccc3)cc2)cs1` [Example 359, (R)-6-(3-cyanopyrrolo[1,2-b]pyridazin-7-yl)-N-(2-fluoro-3-hydroxy-3-methylbutyl)-4-((4-(4-phenoxyphenyl)thiazol-2-yl)amino)nicotinamide], in assay [1], the EC50 is more than 10000 nM. This compound gave an IC50 in assay [2] of 614 nM.
In the same order, the values of `CC(C)(C)c1cc(Nc2cc(-c3ccc4cc(C#N)cnn34)ncc2C(=O)NC[C@@H](F)C(C)(C)O)on1` [Example 360, (R)-4-((3-(tert-butyl)isoxazol-5-yl)amino)-6-(3-cyanopyrrolo[1,2-b]pyridazin-7-yl)-N-(2-fluoro-3-hydroxy-3-methyl-butyl)nicotinamide] are more than 10000 nM and 2 nM.
In the same order, the values of `CNC(=O)c1cnc(-c2ccc3cc(C#N)cnn23)cc1NC12CCC(O)(CC1)CC2` [Example 361, 6-(3-cyanopyrrolo[1,2-b]pyridazin-7-yl)-4-((4-hydroxybicyclo[2.2.2]octan-1-yl)amino)-N-methylnicotinamide] are 50 nM and 1 nM.
Take `CNC(=O)[C@H]1CC[C@@H](Nc2cc(-c3ccc4cc(C#N)cnn34)ncc2C(=O)NC[C@@H](F)C(C)(C)O)CC1` [Example 362, 6-(3-cyanopyrrolo[1,2-b]pyridazin-7-yl)-N-((R)-2-fluoro-3-hydroxy-3-methylbutyl)-4-(((1s,4S)-4-(methylcarbamoyl)cyclo-hexyl)amino)nicotinamide]: in assay [1], the EC50 came to 1430 nM. The same compound had an IC50 in assay [2] of 9 nM.
In the same order, the values of `CC(C)(O)[C@H](F)CNC(=O)c1cnc(-c2ccc3cc(C#N)cnn23)cc1Nc1nc(-c2ccccc2)cs1` [Example 363, (R)-6-(3-cyanopyrrolo[1,2-b]pyridazin-7-yl)-N-(2-fluoro-3-hydroxy-3-methylbutyl)-4-((4-phenyl-thiazol-2-yl)amino) nicotinamide] are 328 nM and 5 nM.
As to `Cc1ccc(-c2cc(Nc3cc(-c4ccc5cc(C#N)cnn45)ncc3C(=O)NC[C@@H](F)C(C)(C)O)n(-c3ccccc3)n2)cc1` [Example 364, (R)-6-(3-cyanopyrrolo[1,2-b]pyridazin-7-yl)-N-(2-fluoro-3-hydroxy-3-methylbutyl)-4-((1-phenyl-3-(p-tolyl)-1H-pyrazol-5-yl)amino)nicotinamide], the EC50 in assay [1] was more than 10000 nM. Further, in assay [2], the IC50 was 1000 nM.
In the same order, the values of `CC(C)(O)[C@H](F)CNC(=O)c1cnc(-c2ccc3cc(C#N)cnn23)cc1Nc1sc2c(c1C(N)=O)CCCC2` [Example 365, (R)-4-((3-carbamoyl-4,5,6,7-tetrahydrobenzo[b]thiophen-2-yl)amino)-6-(3-cyanopyrrolo[1,2-b]pyridazin-7-yl)-N-(2-fluoro-3-hydroxy-3-methylbutyl)nicotinamide] are 415 nM and 4 nM.
`CN(C)C1CCC(NC(=O)c2cnc(-c3ccc4cc(C#N)cnn34)cc2N[C@H]2CCC[C@@H](O)C2)CC1` (stereo partly drawn) [Example 366, 6-(3-cyanopyrrolo[1,2-b]pyridazin-7-yl)-N-((1r,4S)-4-(dimethylamino)cyclohexyl)-4-(((1S,3R)-3-hydroxycyclohexyl)amino) nicotinamide]: the EC50 in assay [1] was 162 nM. This compound also came in with a half-inhibitory concentration (IC50) in assay [2] of 1 nM.
In the same order, the values of `CC(C)(O)[C@H](F)CNC(=O)c1cnc(-c2ccc3cc(C#N)cnn23)cc1NC1CCC(=O)NC1` (stereo partly drawn) [Example 367, 6-(3-cyanopyrrolo[1,2-b]pyridazin-7-yl)-N-((R)-2-fluoro-3-hydroxy-3-methylbutyl)-4-((6-oxopiperidin-3-yl)amino)nicotinamide] are 1560 nM and 3 nM.
In the same order, the values of `CC(C)(O)[C@H](F)CNC(=O)c1cnc(-c2ccc3cc(C#N)cnn23)cc1N[C@H]1CCC(=O)NC1` [Example 368, 6-(3-cyanopyrrolo[1,2-b]pyridazin-7-yl)-N-((R)-2-fluoro-3-hydroxy-3-methylbutyl)-4-(((S)-6-oxopiperidin-3-yl)amino)nicotinamide] are 2890 nM and 5 nM.
Regarding `CC(C)NC(=O)c1cnc(-c2ccc3cc(C#N)cnn23)cc1NC(C)C` [Example 369, 6-(3-cyanopyrrolo[1,2-b]pyridazin-7-yl)-N-isopropyl-4-(isopropylamino)nicotinamide], in assay [1], the EC50 worked out at 922 nM. In assay [2], this compound returned a half-inhibitory concentration (IC50) of 16 nM.
